For 8 compounds, TGI results are on record in PubChem BioAssay (NCI).

Test systems include EKVX NSCLC; A549 NSCLC; HCT-15 colon; TK-10 renal; A498 renal; UACC-257 melanoma; SF-539 CNS; CCRF-CEM leukemia; SNB-19 CNS; SW-620 colon; KM12 colon; RPMI-8226 leukemia; SN12C renal; LOX IMVI melanoma; IGROV1 ovarian; K-562 leukemia; SK-OV-3 ovarian; HCC-2998 colon; RXF 393 renal; SK-MEL-5 melanoma.
What all share (assay): inhibition of tumour cell growth, NCI panel, 48 h

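The compound was tested at five concentrations on cells cultured in 96-well plates, with a 48-hour exposure period. The concentration for full growth arrest is given as TGI.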

With `COC(=O)C(Cc1cc(OC)c(OC)c(OC)c1)(NC(=O)c1ccccc1)P(=O)(OC)OC` (stereo unspecified), the TGI in the test with EKVX NSCLC, in the test with A549 NSCLC, in the test with HCT-15 colon, with TK-10 renal, with A498 renal and in the test with UACC-257 melanoma was over 100 µM each time. Moreover, the TGI in the test on SF-539 CNS, in the test with CCRF-CEM leukemia, in the test with SNB-19 CNS, in the test on SW-620 colon, with KM12 colon and in the test with RPMI-8226 leukemia was over 100 µM throughout. Moreover, the TGI with SN12C renal, in the test on LOX IMVI melanoma, in the test on IGROV1 ovarian, with K-562 leukemia, in the test on SK-OV-3 ovarian and in the test on HCC-2998 colon was over 100 µM throughout. In addition, the TGI in the test on RXF 393 renal and in the test with SK-MEL-5 melanoma was over 100 µM each time.

With `COc1ccc(Nc2cnc3cc(N)ccc3n2)cc1OC`, the TGI in the test on EKVX NSCLC, in the test on HCT-15 colon, in the test on TK-10 renal, in the test on UACC-257 melanoma, with CCRF-CEM leukemia and in the test with SW-620 colon was over 100 µM each time. In addition, the TGI in the test on KM12 colon is over 100 µM; with RPMI-8226 leukemia it was 86.2 µM; with SN12C renal, over 100 µM; in the test on LOX IMVI melanoma, over 100 µM; in the test with IGROV1 ovarian, over 100 µM; with K-562 leukemia, over 100 µM. Further, the TGI in the test on SK-OV-3 ovarian, in the test with HCC-2998 colon, with RXF 393 renal and in the test on SK-MEL-5 melanoma was over 100 µM each time.

`c1ccc2c(CCNC3=NCCO3)cccc2c1`: the TGI in the test on EKVX NSCLC, with A549 NSCLC, in the test with HCT-15 colon, with TK-10 renal, in the test on A498 renal and in the test with SF-539 CNS was over 10 µM throughout. The TGI with CCRF-CEM leukemia, with SNB-19 CNS, with SW-620 colon, in the test with KM12 colon, in the test with RPMI-8226 leukemia and with LOX IMVI melanoma was over 10 µM in each case. For the same compound, the TGI in the test on IGROV1 ovarian, in the test on K-562 leukemia, with SK-OV-3 ovarian, with HCC-2998 colon, in the test with RXF 393 renal and in the test on SK-MEL-5 melanoma was over 10 µM throughout.

For the compound `Nc1[nH]nc2c1Cc1c(n(Cc3ccc(Cl)cc3)c3ccccc13)C(=O)N2`, the TGI with EKVX NSCLC worked out at 59.2 µM; in the test with A549 NSCLC, 46.2 µM; in the test on HCT-15 colon, 16.8 µM; in the test on TK-10 renal, 35 µM; in the test on A498 renal it was 29.7 µM; in the test on UACC-257 melanoma, 46.4 µM. In addition, the TGI in the test on SF-539 CNS is 29.9 µM; in the test on CCRF-CEM leukemia it was 26.6 µM; in the test with SW-620 colon it was over 100 µM; with SN12C renal, 28 µM; in the test on LOX IMVI melanoma, 26.4 µM; in the test with IGROV1 ovarian it was 31.8 µM. The TGI with K-562 leukemia was over 100 µM; in the test on SK-OV-3 ovarian, 34.6 µM; in the test on HCC-2998 colon, 24.6 µM; in the test on RXF 393 renal, 25.9 µM; with SK-MEL-5 melanoma, 17.6 µM.

Turning to `CC(=O)Nc1ccc(C(=O)NN2C(=O)C(Cl)C2/C=C/c2ccccc2)cc1` (stereo unspecified), the TGI in the test on A549 NSCLC, in the test on TK-10 renal, in the test with UACC-257 melanoma, in the test on SF-539 CNS, in the test on CCRF-CEM leukemia and with SNB-19 CNS was over 100 µM in each case. In addition, the TGI in the test on SW-620 colon, in the test on KM12 colon, in the test on RPMI-8226 leukemia, in the test on IGROV1 ovarian, in the test with K-562 leukemia and in the test with SK-OV-3 ovarian was over 100 µM in each case. Besides, the TGI in the test on HCC-2998 colon and in the test with SK-MEL-5 melanoma was over 100 µM throughout.

As for `O=[N+]([O-])c1cnccc1-n1nnc2ccccc21`, the TGI in the test on EKVX NSCLC was 90.6 µM; in the test with A549 NSCLC, over 90.1 µM; with HCT-15 colon it was 66.1 µM; in the test with A498 renal, 92.1 µM; in the test with UACC-257 melanoma it was 51.4 µM; in the test on SF-539 CNS, 45.8 µM. The TGI was over 86.5 µM with CCRF-CEM leukemia; over 100 µM in the test on SNB-19 CNS; 52 µM with SW-620 colon; 40.7 µM in the test with KM12 colon; over 100 µM with RPMI-8226 leukemia; 37.7 µM with SN12C renal. For the same compound, the TGI was 32.8 µM in the test with LOX IMVI melanoma; 47.6 µM with IGROV1 ovarian; over 100 µM with K-562 leukemia; 56.6 µM in the test with SK-OV-3 ovarian; 51.6 µM in the test on HCC-2998 colon; 46.8 µM in the test with RXF 393 renal. Also, the TGI with SK-MEL-5 melanoma turned out to be 33.3 µM.

As to `O=C(O)c1cc2sc(C(=O)O)cc2s1`, the TGI in the test on A549 NSCLC, with HCT-15 colon, in the test on TK-10 renal, in the test with A498 renal, in the test with UACC-257 melanoma and in the test with SF-539 CNS was over 100 µM in each case. For the same compound, the TGI in the test on CCRF-CEM leukemia, with SNB-19 CNS, in the test with SW-620 colon, in the test on KM12 colon, in the test with RPMI-8226 leukemia and in the test with SN12C renal was over 100 µM in each case. The TGI in the test with LOX IMVI melanoma, in the test on IGROV1 ovarian, in the test with K-562 leukemia, in the test on SK-OV-3 ovarian, with RXF 393 renal and with SK-MEL-5 melanoma was over 100 µM throughout.

For the compound `CSc1nc(NC2OC(CO)C(O)C(O)C2O)c(N)c(=O)[nH]1` (stereo unspecified), the TGI with EKVX NSCLC, with A549 NSCLC, in the test with HCT-15 colon, in the test on A498 renal, in the test on UACC-257 melanoma and in the test with SF-539 CNS was over 100 µM in each case. Further, the TGI in the test with CCRF-CEM leukemia, in the test on SNB-19 CNS, with SW-620 colon, in the test with KM12 colon, in the test with RPMI-8226 leukemia and in the test on SN12C renal was over 100 µM throughout. Further, the TGI in the test with LOX IMVI melanoma, in the test on IGROV1 ovarian, with K-562 leukemia, in the test on SK-OV-3 ovarian, in the test on HCC-2998 colon and with RXF 393 renal was over 100 µM in each case. In the test on SK-MEL-5 melanoma, the TGI was over 100 µM.
